Laboratory results: PubChem BioAssay (NCI)
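Growth conditions: 96-well plates. Treatment: test compound, 48 hours, 5 concentrations. Analysis: linear interpolation between bracketing concentrations; unreached endpoints set to highest concentration. TGI is the concentration that stops growth completely.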

Columns and labels:
Experiment in all cases: DTP human tumour cell line panel, 48 h
DLD-1 colon = test system: DLD-1 colon
KM20L2 colon = test system: KM20L2 colon
DMS 114 small cell lung = test system: DMS 114 small cell lung
SF-295 CNS = test system: SF-295 CNS
UACC-62 melanoma = test system: UACC-62 melanoma
M19-MEL melanoma = test system: M19-MEL melanoma
HOP-18 NSCLC = test system: HOP-18 NSCLC
PC-3 prostate = test system: PC-3 prostate
SNB-78 CNS = test system: SNB-78 CNS
TK-10 renal = test system: TK-10 renal
MALME-3M melanoma = test system: MALME-3M melanoma

SMILES	TGI (DLD-1 colon)	TGI (KM20L2 colon)	TGI (DMS 114 small cell lung)	TGI (SF-295 CNS)	TGI (UACC-62 melanoma)	TGI (M19-MEL melanoma)	TGI (HOP-18 NSCLC)	TGI (PC-3 prostate)	TGI (SNB-78 CNS)	TGI (TK-10 renal)	TGI (MALME-3M melanoma)
Nc1ccc(-c2nc3ccccc3s2)cc1	77.3 µM	> 100 µM	39.1 µM	> 74.9 µM	38.6 µM	> 100 µM	> 100 µM	29.2 µM	98.2 µM	42.3 µM	45 µM
CCCCCCc1cn([C@H]2C[C@H](O)[C@@H](CO)O2)c(=O)[nH]c1=O	> 100 µM	> 100 µM	> 100 µM	> 31.6 µM	> 31.6 µM	> 100 µM	> 100 µM		> 100 µM		> 100 µM
O=C1OC(c2ccccc2)=N/C1=C/N1CCCC1C(=O)O (stereo unspecified)	> 100 µM	> 100 µM	> 100 µM	> 100 µM	> 100 µM	> 100 µM	> 100 µM		> 100 µM	> 100 µM	> 100 µM
CC(=O)O[C@H]1C(=O)[C@@]2(C)C(C(OC(=O)c3ccccc3)[C@]3(O)CC(OC(=O)C(O)C(NC(=O)c4ccccc4)c4ccc(C)cc4)C(C)=C1C3(C)C)[C@]1(OC(C)=O)CO[C@@H]1C[C@@H]2O (stereo partly specified)	> 25 µM	0.0981 µM	0.168 µM		6.51 µM	3.57 µM	23.6 µM		> 25 µM	> 25 µM	10.4 µM
CC1(C)N=C(N)N=C(N)N1c1ccc(OCCCOc2ccccc2)c(Cl)c1	> 100 µM	11.3 µM	14.3 µM	> 43.7 µM	18.3 µM	15 µM	17.6 µM		18 µM		14.5 µM
COc1cccc2c1[C@]1(O)C(O)CCCC21 (stereo partly specified)	> 100 µM	> 100 µM	> 100 µM	> 100 µM	> 100 µM	> 100 µM	> 100 µM		> 100 µM	> 100 µM	> 100 µM
O=C1OC2C=CC1C1(CCOC1=O)C2 (stereo unspecified)	> 100 µM	> 100 µM	> 100 µM		94.6 µM	> 100 µM	> 100 µM			> 100 µM	> 100 µM
